Measured values as given in patent US20260042802A1, “POLYPEPTIDE AND USE THEREOF” (priority 2024, published 2026).
Where a SMILES comes first, the peptide text is derived from it. Bridges are numbered along the chain shown (N, C = ends).

How the values were obtained:
Nav1.4 = target: T1, Nav1.4 (Homo sapiens, UniProt P35499); test: Whole-cell patch clamp on Nav1.4 overexpressing HEK293 cells; format: cell-based; conditions: 300 nM; −90 mV to +40 mV, 30 ms; n=5
T1 construct: expressed in transfected cells; host or cells: HEK293
T1 sequence (P35499 whole entry): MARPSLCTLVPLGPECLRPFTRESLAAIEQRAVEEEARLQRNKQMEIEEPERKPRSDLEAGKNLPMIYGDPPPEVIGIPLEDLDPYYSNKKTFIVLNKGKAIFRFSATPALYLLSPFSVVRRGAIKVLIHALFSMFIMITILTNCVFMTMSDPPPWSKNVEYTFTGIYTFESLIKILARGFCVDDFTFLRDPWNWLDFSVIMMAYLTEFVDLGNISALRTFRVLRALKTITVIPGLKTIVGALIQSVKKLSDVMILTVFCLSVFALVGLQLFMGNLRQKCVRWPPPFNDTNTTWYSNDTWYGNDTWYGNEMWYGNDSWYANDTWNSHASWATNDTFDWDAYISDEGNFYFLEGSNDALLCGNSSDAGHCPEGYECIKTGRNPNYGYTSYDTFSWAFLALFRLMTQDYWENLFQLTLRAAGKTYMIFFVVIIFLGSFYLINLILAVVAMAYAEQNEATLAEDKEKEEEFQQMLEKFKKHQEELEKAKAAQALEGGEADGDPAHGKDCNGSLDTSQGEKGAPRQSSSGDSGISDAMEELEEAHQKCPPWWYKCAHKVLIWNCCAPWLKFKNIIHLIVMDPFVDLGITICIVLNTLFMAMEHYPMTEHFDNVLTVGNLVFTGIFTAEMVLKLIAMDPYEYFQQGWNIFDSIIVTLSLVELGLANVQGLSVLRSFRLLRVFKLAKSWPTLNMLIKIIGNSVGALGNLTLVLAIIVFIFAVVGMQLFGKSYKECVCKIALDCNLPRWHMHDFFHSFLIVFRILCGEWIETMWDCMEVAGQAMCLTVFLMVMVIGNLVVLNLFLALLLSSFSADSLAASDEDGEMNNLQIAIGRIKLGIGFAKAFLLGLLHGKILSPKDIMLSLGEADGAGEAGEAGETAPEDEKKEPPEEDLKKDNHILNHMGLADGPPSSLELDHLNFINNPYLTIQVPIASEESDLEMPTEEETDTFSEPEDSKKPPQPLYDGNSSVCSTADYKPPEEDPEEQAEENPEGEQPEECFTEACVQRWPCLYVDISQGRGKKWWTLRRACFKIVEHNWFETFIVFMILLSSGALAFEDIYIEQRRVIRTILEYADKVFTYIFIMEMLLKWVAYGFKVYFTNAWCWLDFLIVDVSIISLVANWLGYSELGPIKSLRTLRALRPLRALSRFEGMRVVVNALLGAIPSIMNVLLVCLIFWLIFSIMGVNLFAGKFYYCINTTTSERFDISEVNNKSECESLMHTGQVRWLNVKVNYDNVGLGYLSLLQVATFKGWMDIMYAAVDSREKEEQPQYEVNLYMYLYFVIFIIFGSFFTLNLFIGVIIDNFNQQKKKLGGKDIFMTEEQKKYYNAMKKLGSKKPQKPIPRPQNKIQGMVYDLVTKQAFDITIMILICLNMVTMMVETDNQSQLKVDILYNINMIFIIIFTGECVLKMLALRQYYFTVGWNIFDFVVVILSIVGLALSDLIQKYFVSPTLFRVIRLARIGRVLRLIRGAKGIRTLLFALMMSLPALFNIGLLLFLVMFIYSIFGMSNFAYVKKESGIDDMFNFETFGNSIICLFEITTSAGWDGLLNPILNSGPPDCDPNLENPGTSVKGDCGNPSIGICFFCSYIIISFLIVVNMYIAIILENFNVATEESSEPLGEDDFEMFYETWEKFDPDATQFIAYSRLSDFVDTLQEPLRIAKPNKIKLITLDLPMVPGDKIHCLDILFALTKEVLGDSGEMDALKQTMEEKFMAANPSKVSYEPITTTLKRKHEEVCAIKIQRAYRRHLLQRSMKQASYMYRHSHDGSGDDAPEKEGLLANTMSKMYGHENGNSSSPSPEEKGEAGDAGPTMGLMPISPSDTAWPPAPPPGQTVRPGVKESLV
Experimental: The effect of the polypeptide PPN-01 provided in Example 1 on voltage gated sodium channels is studied using the glass microelectrodes prepared as described above in Example 2 and employing the whole-cell membrane clamp techniques. The specific operations are as follows:
1. Firstly, internal electrode solution is placed on ice to defrost; after defrosting, an appropriate amount of internal electrode solution is drawn up with a 1 ml syringe; and after a homemade filler is applied to the tip end of the syringe, the air in the tube is emptied to fill the entire filler with internal electrode solution. Secondly, internal electrode solution in the filler is poured into the glass microelectrode from a rear part thereof by using the rear part perfusion method; internal electrode solution is slowly injected into the glass microelectrode; and the amount of perfusion is generally ⅓ to ½ of a length of the glass microelectrode (it is necessary to ensure that the silver wire of the electrode may fully contact internal electrode solution, but also to avoid electrode contamination resulting from too much internal electrode solution). […]

sciatic nerve in rats = test: Compound action potential (CAP) of the sciatic nerve in rats; format: in vivo, Sprague-Dawley (SD) rats; conditions: 20 μL of 30, 100, 300 nM on sciatic nerve; before and after needling; vs negative control group (p<0.05)
Experimental: Four SPF-grade healthy Sprague-Dawley (SD) rats are randomly selected, half males and half females, weighing 180˜200 g, 6˜8 weeks old. The rats are first acclimatized and fed for 1 week, fasted for 12 h before the experiment, with free access to water.
Rats weighing between 180 g and 200 g are taken and anesthetized with 7% chloral hydrate solution at a concentration of 0.4 mL/100 g. […] Then, the fully anesthetized rats are placed on the operating table so that their backs are facing upwards and their paws are held in place with a string. The skin and connective tissue of the leg are cut sequentially, and the muscles between the biceps femoris and the gluteus superficialis are bluntly-dissected. […]
Observations are performed on rats in the polypeptide PPN-01 group and in the negative control drug lidocaine group, and the effect of each concentration of polypeptide PPN-01 on the peak amplitude of the positive and negative phases of the CAP in the sciatic nerve of rats is assessed by the inhibition rate. […]
Four to six CAPs within 2 min after each recording time period are selected for analysis, and the mean peak amplitude is calculated as the representative CAP peak amplitude and time course for each group, with the peak amplitude of the CAP being the difference between the baseline and the peak CAP.

In the case of `CSCC[C@@H]1NC(=O)CNC(=O)[C@H](CCC(=O)O)NC(=O)[C@@H]2CSSC[C@H](NC(=O)[C@H](Cc3ccc(O)cc3)NC(C)=O)C(=O)N[C@@H](CCC(N)=O)C(=O)N[C@@H](CCCCN)C(=O)N[C@@H](Cc3ccccc3)C(=O)N[C@@H](CC(C)C)C(=O)N[C@@H](C)C(=O)N3CCC[C@H]3C(=O)N[C@H]3CSSC[C@H](NC(=O)[C@H](CCC(=O)O)NC1=O)C(=O)N[C@@H](CCCCN)C(=O)N[C@@H](CC(C)C)C(=O)N[C@@H](Cc1c[nH]c4ccccc14)C(=O)N[C@H](C(=O)N[C@@H](CCCCN)C(=O)N[C@@H](CCCCN)C(=O)N[C@@H](CCCCN)C(=O)N[C@@H](CC(C)C)C(=O)N[C@@H](Cc1c[nH]c4ccccc14)C(N)=O)CSSC[C@H](NC(=O)[C@H](CCCCN)NC(=O)[C@H](CCCNC(=N)N)NC(=O)[C@H](CCC(=O)O)NC(=O)[C@H](CO)NC(=O)[C@H](CC(=O)O)NC3=O)C(=O)N2` [PPN-01] (Ac-YCQKFLAPCDSERKCCEGMECKLWCKKKLW-NH2; disulfide 2-16, 9-21, 15-25), the “inhibition effect on Nav1.4 overexpressing HEK293 cells” value (Nav1.4) is reported as “no significant inhibition effect” and the “peak amplitude of CAP (positive and negative phases)” value (sciatic nerve in rats) is reported as “significantly decreased”.
